# From ChEMBL document CHEMBL1201862, “PubChem BioAssay data set” (2004)
# Activity calls are given as the source filed them.
# Assays:
# Genome polyprotein = Genome polyprotein (Hepatitis C virus, UniProt Q2Q167); test: HCV core protein dimerization inhibitors, dose response, biochemical, TR-FRET (AID 2159); parameters: species or system Hepacivirus hominis;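 further: blocks dimerization of HCV core protein measured by TR-FRET between tagged core106 pairs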
# [1] = THP-1 cell cytotoxicity, dose response, cytotoxicity control for Vif-APOBEC3G degradation inhibitor project, THP-1 cells (AID 1117359); assay type: functional; details: Human immunodeficiency virus 1, THP-1
# [2] = inhibitors of Vif binding to APOBEC3G peptide, primary screen, biochemical, TR-FRET, GST-Vif 1-94, biotin-A3G peptide, dose response retest (AID 1117319); assay type: functional;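 further: TR-FRET signal of purified GST-Vif binding a biotinylated A3G peptide; inhibitors lower the FRET signal by blocking Vif and A3G binding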
# [3] = target: Heat shock protein HSP 90-alpha (Homo sapiens, UniProt P07900); test: Luminescence-based dose response biochemical high throughput screening assay for inhibitors of the Heat Shock Protein 90 (HSP90). [Related pubchem assays: 1831 (Summary AID.), 1846 (Confirmation screen.), 1789 (Primary screen.)]
# [4] = target: T1, Corticotropin-releasing factor receptor 2/Corticotropin-releasing factor-binding protein (Homo sapiens, UniProt P24387+Q13324); test: activators of CRF receptor 2 with binding protein – uHTS hits, confirmation (AID 602473); assay type: functional; details: read-out: EC50_Mean
# T1 sequence (Q13324 whole entry): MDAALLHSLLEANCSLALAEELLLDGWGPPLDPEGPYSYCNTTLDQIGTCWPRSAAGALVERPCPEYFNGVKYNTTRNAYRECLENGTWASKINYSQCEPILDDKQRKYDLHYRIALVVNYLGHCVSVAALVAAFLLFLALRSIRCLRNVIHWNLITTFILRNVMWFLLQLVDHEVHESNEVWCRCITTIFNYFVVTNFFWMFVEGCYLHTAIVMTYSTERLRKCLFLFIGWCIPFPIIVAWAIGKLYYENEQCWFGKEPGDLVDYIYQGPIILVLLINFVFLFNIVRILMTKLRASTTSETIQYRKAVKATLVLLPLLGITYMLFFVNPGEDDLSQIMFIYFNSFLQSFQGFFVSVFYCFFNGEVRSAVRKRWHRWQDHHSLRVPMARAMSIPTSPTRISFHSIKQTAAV
# T1 sequence (P24387 whole entry): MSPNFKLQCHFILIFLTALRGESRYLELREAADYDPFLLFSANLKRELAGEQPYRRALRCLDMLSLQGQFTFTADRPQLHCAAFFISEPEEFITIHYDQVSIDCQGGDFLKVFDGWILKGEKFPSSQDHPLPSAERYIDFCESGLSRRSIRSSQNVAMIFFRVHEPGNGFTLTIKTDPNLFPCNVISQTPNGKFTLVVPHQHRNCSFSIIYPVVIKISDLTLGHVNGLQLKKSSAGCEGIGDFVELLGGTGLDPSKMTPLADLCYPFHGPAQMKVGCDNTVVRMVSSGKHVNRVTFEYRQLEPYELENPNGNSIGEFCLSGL
# [5] = target: Voltage-gated inwardly rectifying potassium channel KCNH2 (Homo sapiens, UniProt Q12809); test: hERG protection from proarrhythmic block, potency, dose response, cell-based, thallium flux (AID 2121); assay type: ADME
# Chain of Voltage-gated inwardly rectifying potassium channel KCNH2 (Q12809 whole entry): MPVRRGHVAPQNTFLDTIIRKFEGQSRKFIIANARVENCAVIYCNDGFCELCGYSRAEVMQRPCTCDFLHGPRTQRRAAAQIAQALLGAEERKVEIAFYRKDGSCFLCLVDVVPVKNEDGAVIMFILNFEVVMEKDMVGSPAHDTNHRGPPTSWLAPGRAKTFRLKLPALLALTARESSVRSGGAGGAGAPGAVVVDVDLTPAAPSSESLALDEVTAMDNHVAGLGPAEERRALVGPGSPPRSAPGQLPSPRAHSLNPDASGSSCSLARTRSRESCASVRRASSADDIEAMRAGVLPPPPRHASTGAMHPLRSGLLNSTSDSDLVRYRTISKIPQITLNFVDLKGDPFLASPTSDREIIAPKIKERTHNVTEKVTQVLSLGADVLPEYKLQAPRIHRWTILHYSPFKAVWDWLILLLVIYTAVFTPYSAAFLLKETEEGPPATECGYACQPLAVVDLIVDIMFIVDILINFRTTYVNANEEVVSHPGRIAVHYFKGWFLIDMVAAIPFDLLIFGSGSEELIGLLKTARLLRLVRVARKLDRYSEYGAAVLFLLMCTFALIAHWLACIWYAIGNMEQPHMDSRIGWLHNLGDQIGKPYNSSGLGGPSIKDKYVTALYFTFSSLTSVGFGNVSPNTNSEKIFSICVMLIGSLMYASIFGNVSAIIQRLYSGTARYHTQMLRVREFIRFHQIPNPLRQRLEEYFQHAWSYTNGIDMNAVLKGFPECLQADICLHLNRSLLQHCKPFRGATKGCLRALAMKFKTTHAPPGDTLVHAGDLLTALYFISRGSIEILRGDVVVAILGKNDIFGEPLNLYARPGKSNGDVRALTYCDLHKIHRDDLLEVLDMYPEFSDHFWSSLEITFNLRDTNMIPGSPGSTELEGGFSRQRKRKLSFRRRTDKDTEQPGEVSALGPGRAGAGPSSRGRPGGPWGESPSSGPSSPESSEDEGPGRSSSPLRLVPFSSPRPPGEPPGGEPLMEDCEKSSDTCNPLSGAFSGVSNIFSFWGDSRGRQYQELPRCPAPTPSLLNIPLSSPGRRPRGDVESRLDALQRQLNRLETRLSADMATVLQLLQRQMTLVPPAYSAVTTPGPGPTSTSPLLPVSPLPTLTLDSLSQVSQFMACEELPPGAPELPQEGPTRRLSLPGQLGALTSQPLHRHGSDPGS
# [6] = target: T2, Mannose-6-phosphate isomerase (Homo sapiens, UniProt P34949); test: inhibitors of human PMI, primary screen, biochemical, fluorescence intensity, coupled assay (AID 1209)
# T2 sequence (P34949 whole entry): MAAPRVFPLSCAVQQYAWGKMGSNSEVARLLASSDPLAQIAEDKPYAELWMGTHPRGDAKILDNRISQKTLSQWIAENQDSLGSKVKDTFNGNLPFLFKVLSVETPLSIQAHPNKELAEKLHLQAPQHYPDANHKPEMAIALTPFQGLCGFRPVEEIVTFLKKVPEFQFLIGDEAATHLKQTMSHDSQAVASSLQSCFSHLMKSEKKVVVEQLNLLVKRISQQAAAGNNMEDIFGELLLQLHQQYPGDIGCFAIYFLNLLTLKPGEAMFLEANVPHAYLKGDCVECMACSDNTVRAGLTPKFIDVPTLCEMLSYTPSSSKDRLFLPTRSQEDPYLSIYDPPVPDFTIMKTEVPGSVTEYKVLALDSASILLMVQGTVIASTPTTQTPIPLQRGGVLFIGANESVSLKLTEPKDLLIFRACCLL
# [7] = target: T2, Mannose-6-phosphate isomerase; test: human PMI inhibitors, high substrate, primary screen, biochemical, fluorescence intensity, high mannose 6-phosphate (AID 1220)
# [8] = A Cell Based Secondary Assay To Explore Cytotoxicity of Compounds that Sensitize Mycobacterium Tuberculosis to Beta-Lactam Antibiotics.; assay type: functional
# Cytochrome P450 2C9 = Cytochrome P450 2C9 (Homo sapiens, UniProt P11712)
# Chain of Cytochrome P450 2C9 (P11712 whole entry): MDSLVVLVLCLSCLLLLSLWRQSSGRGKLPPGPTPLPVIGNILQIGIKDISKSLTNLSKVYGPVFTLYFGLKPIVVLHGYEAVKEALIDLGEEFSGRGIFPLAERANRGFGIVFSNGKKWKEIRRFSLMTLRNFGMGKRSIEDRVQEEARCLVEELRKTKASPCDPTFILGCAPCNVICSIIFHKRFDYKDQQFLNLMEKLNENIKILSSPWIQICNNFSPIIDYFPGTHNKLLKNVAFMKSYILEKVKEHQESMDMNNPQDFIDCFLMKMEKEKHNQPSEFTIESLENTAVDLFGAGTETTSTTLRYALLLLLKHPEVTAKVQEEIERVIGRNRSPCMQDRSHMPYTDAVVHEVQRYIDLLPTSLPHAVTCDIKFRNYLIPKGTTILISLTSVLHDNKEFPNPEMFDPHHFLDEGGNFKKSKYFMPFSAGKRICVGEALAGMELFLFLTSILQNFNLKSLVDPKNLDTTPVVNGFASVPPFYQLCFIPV
# Cytochrome P450 2C19 = Cytochrome P450 2C19 (Homo sapiens, UniProt P33261); test: Cytochrome panel assay with activity outcomes. Panel member name: p450-cyp2c19 Compounds with AC50 equal or less than 10 uM are considered active; assay type: functional; details: read-out: AC50
# Chain of Cytochrome P450 2C19 (P33261 whole entry): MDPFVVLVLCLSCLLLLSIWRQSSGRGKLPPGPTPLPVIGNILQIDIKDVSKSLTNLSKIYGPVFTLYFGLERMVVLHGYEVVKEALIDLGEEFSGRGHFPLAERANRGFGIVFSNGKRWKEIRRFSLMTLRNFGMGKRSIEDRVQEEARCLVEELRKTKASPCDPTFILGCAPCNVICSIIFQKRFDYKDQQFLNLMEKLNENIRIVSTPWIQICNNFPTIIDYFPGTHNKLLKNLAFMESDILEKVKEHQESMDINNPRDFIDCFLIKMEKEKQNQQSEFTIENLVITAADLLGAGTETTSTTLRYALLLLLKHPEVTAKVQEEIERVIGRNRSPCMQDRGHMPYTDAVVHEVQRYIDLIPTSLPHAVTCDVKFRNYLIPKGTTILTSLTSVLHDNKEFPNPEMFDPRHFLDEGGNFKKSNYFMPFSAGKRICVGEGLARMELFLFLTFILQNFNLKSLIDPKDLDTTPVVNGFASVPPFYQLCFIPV
# [9] = Luminescence Cell-Based Dose Retest to Confirm Inhibitors of Cancer Stem Cells. [Related pubchem assays (depositor defined):AID2717, AID2721]; assay type: functional; details: Homo sapiens
# Cytochrome P450 1A2 = target: T3, Cytochrome P450 1A2 (Homo sapiens, UniProt P05177);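 further: PubChem cytochrome P450 panel assay, CYP1A2 panel member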
# T3 sequence (P05177 whole entry): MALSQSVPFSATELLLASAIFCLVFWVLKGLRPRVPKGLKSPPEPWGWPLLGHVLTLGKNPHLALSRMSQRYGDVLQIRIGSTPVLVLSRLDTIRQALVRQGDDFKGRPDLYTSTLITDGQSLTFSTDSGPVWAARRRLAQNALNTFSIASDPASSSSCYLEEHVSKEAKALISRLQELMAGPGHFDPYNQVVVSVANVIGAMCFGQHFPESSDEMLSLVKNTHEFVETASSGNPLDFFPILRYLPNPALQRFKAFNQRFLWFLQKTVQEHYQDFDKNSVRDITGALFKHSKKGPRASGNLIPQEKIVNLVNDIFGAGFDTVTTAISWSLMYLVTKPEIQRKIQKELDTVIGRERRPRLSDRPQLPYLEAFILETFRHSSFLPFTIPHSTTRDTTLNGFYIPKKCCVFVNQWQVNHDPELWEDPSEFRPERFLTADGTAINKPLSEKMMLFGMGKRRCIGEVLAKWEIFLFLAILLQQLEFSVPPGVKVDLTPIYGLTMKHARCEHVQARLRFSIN
# [10] = inhibitors of SNCA 5'UTR-driven reporter translation, confirmation, H4 neuroglioma cells, luminescence (AID 1988); assay type: functional, cell-based
# [11] = HIV-1 Env-mediated cell fusion inhibitors, dose response, CCR5-tropic Env (AID 2279); assay type: functional
# [12] = target: T4, Microphthalmia-associated transcription factor (Homo sapiens, UniProt O75030); test: TRPM1 promoter luciferase signal decrease, dose response, MITF inhibitor project, cell-based, SK-MEL-5, cherry-picked, set 3 (AID 493073); assay type: functional
# T4 sequence (O75030 whole entry): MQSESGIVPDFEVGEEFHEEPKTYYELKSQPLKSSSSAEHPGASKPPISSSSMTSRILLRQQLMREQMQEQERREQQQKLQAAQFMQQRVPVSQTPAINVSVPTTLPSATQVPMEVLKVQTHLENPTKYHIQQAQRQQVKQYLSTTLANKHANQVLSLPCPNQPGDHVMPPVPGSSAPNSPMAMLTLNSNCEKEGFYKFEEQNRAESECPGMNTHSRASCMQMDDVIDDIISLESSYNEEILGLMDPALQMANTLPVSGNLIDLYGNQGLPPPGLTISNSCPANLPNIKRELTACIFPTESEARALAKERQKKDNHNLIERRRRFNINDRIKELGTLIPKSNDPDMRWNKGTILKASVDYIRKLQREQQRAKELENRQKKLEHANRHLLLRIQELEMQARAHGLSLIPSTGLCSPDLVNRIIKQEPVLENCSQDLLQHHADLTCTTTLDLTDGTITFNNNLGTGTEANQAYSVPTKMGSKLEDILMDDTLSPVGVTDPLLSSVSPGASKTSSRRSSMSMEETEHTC
# [13] = Luminescence Cell-Based Dose Response HTS to Identify Inhibitors of 5'UTR Stem-Loop Driven Prion Protein mRNA Translation in H4 Neuroglioblastoma Cells. [Related pubchem assays: 1827 (Project Summary), 1813 (Primary HTS)]; assay type: functional
# [14] = inhibitors of firefly luciferase expression or activity, dose response, H4 neuroglioma cells, luminescence (AID 1990); assay type: functional, cell-based
# Chain of Genome polyprotein (Q2Q167 whole entry): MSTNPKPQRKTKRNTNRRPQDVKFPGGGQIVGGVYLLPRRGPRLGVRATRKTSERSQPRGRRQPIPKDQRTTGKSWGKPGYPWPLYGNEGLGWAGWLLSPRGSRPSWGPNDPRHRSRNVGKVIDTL
structure (smiles),measurement,setting,value
CCCCn1c(SCC(=O)Nc2cc(C)on2)nc2ccccc2c1=O,IC50,Genome polyprotein,> 49.8 µM (not active)
CCOC(=O)C1CCN(C(=O)c2ccc3snnc3c2)CC1,CC50,[1],> 40 µM (active)
N#Cc1ccccc1NC(=O)CNc1ccc(Cl)c(C(F)(F)F)c1,IC50,[2],> 100 µM (active)
Cc1ccc2oc(=O)c(/C=C(\O)c3ccco3)nc2c1,IC50,[3],5.13 µM (active)
same,EC50,[4],4.74 µM (active)
O=C(NC(=S)Nc1nc2c(s1)CSc1ccccc1-2)c1ccccc1,EC50,[5],5.11 µM (active)
same,IC50,[6],> 50 µM (not active)
same,IC50,[7],> 50 µM (not active)
Cc1cccc(OCc2n[nH]c(-c3ccccn3)n2)c1,CC50,[8],28 µM (active)
CC(C)(C)c1ccc(OCC(=O)N/N=C/c2cc(Br)ccc2OC(=O)c2ccco2)cc1,AC50,Cytochrome P450 2C9,inconclusive
same,AC50,Cytochrome P450 2C19,1.26 µM (inconclusive)
same,AC50,[9],2.29 µM (active)
same,AC50,Cytochrome P450 1A2,5.01 µM (inconclusive)
same,CC50,[8],15 µM (active)
COc1cc(/C=N/NS(=O)(=O)c2ccc3ccccc3c2)ccc1OCc1ccc(C(=O)O)cc1,EC50,[10],7.05 µM (active)
same,IC50,[11],23.6 µM (active)
same,AC50,[12],4.78 µM (active)
same,EC50,[13],10.5 µM (active)
same,EC50,[14],9.11 µM (inconclusive)
